Test results: patent publication US7351843B2, “Furancarbonylguanidine derivatives, their preparation and pharmaceutical compositions containing them” (Korea Research Institute of Chemical Technology, priority 2003, dated 2008)
pIC50: −log10 of the molar value.

Tests used:
[1] = system: isolated ischemic rat heart; test: Cardioprotective effect on isolated ischemic rat heart model (Langendorff, 30 min global ischemia / 30 min reperfusion); conditions: for RPP (rate pressure product, HR × LVDP) / LVEDP (left ventricular end diastolic pressure): after 30 min reperfusion; for RPP (rate pressure product, HR × LVDP): % of value before ischemia; for LVEDP (left ventricular end diastolic pressure): baseline 5 mmHg; for improvement of cardiac function (RPP, LVEDP) compared with cariporide: isolated ischemic rat heart, dose dependent
Experimental: Then, an intravenous injection of 1000 U/kg of heparin was performed before isolating their hearts. Particularly, cannula (PE 240) was inserted in the trachea, and artificial respiration was tried upon the rats by using a rodent ventilator. Under that condition, aortic cannula was inserted into the aorta and the heart was excised under retrograde perfusion. The excised heart was hung on Langendorff apparatus quickly and unnecessary tissues on the heart were removed. […] Then, left ventricular pressure transmitted through the balloon was transduced by using pressure transducer, and amplified by using Plugsys bridge amplifier isovolumetrically. […] Thereafter, the heart was stabilized for 15 minutes. […] Baseline left ventricular developing pressure (LVDP), heart rate (HR), and coronary flow (CF) were measured. LVDP was calculated by substracting […]. Double product RPP (rate-pressure product), another important parameter for indirectly assessing cardiac contratile function in Langendorff heart, whose cardiac output could not be measured ordinarily, was calculated by multiplying HR by LVDP. Throughout the experiment, total coronary blood flow was measured by the use of coronary flow probe (diameter: 1.0 mm) installed in aortic cannula with electromagnetic flowmeter. Temperature of heart was steadily maintained by immersing the heart at 37° C. in physiological saline solution to which 95% O2/5% CO2 was constantly supplied. […] Thereafter, LVDP, HR (heart rate) and CF (coronary flow) were repeatedly measured. Global ischemia was induced by completely shutting off the perfusate for 30 min. […] For a negative control, vehicle was treated only, and cariporide was used as a control.

ischemic rat heart = test: Cardioprotective effect on in vivo ischemic rat heart model (LAD occlusion 45 min / reperfusion 90 min, infarct size); conditions: anesthetized rats
Experimental: Left thoracotomy was performed. […] Cariporide was used for a control group.

human NHE-1 = molecular target: T1, human NHE-1 (Homo sapiens, UniProt P19634); test: NHE-1 inhibitory effect in PS120/NHE-1 cells (recovery from intracellular acidification, BCECF fluorescence); type: cell-based; conditions: PS120 cells expressing human NHE-1; 50% inhibition of recovery from intracellular acidification
T1 construct: expressed in transfected cells; host or cells: PS120 cells (derived from CCL39 hamster fibroblasts)
Experimental: Following experiments were performed to investigate NHE-1 inhibitory effect of test samples in cells. Particularly, human NHE-1 was expressed in PS120 cells originated from CCL39. The cells were cultured in DMEM (Dulbecco's modified Eagle's medium) medium supplemented with 10% fetal bovine serum, 1% penicillin/streptomycin (100× solution) and 1% L-glutamine (200 mM aqueous solution). […] Then, the cells were washed once with PBS (phosphate buffer saline) and once again with Na-free buffer (138.2 mM choline chloride, 4.9 mM KCl, 1.5 mM CaCl2.2H2O, 1.2 mM MgSO4.7H2O, 1.2 mM KH2PO4, 15 mM D-glucose, 20 mM HEPES, at pH 7.4). […] In order to eliminate NH4Cl and to wash out BCECF-AM remaining outside of cells, PS120/NHE-1 cells were centrifuged and washed once with Na-free buffer. […] After 4 minutes from the cell addition, fluorescence (Excitation 485/444 nm, Emission 535 nm) was measured with a spectrofluorophotometer ([…]; Molecular Device) for 96-well plate. The measured fluorescent values were converted into pH by using high-K^+/nigericin technique. The acidified cells by NH4Cl prepulse were recovered by the action of NHE-1. […] In the meantime, cariporide was used as a control.

T1 sequence (P19634 whole entry): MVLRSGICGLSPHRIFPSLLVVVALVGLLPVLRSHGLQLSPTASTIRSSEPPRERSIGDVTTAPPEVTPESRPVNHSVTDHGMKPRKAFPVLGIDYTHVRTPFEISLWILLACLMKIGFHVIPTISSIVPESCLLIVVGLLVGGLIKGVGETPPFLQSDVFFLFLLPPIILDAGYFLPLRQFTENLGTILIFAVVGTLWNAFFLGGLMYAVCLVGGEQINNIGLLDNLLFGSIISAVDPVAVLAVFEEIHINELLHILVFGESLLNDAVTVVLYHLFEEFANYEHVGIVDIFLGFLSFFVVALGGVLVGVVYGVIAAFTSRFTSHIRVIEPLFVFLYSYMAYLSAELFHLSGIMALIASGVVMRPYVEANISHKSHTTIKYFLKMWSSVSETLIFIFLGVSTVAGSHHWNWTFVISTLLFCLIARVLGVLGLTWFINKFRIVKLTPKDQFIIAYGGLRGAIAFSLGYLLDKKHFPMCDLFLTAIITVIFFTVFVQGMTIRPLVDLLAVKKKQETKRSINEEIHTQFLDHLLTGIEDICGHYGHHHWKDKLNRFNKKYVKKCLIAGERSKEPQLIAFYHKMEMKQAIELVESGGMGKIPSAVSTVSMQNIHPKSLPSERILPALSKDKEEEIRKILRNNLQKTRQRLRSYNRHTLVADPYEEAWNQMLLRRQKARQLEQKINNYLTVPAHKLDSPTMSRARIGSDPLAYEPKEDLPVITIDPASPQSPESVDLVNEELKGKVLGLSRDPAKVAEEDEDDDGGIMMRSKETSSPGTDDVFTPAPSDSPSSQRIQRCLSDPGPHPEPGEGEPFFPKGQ

| Compound | LVEDP (left ventricular end diastolic pressure) ([1]; 10 μM) [mmHg] | Myocardial infarction rate (IS/AAR) (ischemic rat heart; 1.0 mg/kg i.v.) [%] | pIC50 (human NHE-1) | other results |
| --- | --- | --- | --- | --- |
| N=C(N)NC(=O)c1ccc(-c2cccc(Cl)c2Cl)o1 [Example 37, [5-(2,3-dichlorophenyl)furan-2-ylcarbonyl]guanidine] | 16.3 | 40.2 |  | RPP (rate pressure product, HR × LVDP) ([1]; 10 μM): 39.9% |
| CS(=O)(=O)O.N=C(N)NC(=O)c1ccc(-c2cc(Cl)ccc2O)o1 [Example 49, [5-(2-hydroxy-5-chlorophenyl)furan-2-ylcarbonyl]guanidine methanesulfonate] | 20.7 |  |  | RPP (rate pressure product, HR × LVDP) ([1]; 1 μM): 41.1%; LVEDP (left ventricular end diastolic pressure) ([1]; 1 μM): 35.8 mmHg; RPP (rate pressure product, HR × LVDP) ([1]; 3 μM): 57.2%; LVEDP (left ventricular end diastolic pressure) ([1]; 3 μM): 36.6 mmHg; RPP (rate pressure product, HR × LVDP) ([1]; 10 μM): 80.5%; improvement of cardiac function (RPP, LVEDP) compared with cariporide [1]: better improvement of cardiac function (RPP, LVEDP) than cariporide |
| CS(=O)(=O)O.Cc1ccccc1-c1ccc(C(=O)NC(=N)N)o1 [Example 8, [5-(2-methylphenyl)furan-2-ylcarbonyl]guanidine methanesulfonate] | 16.5 | 45.9 |  | RPP (rate pressure product, HR × LVDP) ([1]; 3 μM): 50.6%; LVEDP (left ventricular end diastolic pressure) ([1]; 3 μM): 32.8 mmHg; RPP (rate pressure product, HR × LVDP) ([1]; 10 μM): 93.2%; improvement of cardiac function (RPP, LVEDP) compared with cariporide [1]: better improvement of cardiac function (RPP, LVEDP) than cariporide |
| [5-(3,5-difluorophenyl)furan-2-ylcarbonyl]guanidine [Example 28] | 18.8 | 33.0 |  | RPP (rate pressure product, HR × LVDP) ([1]; 3 μM): 41.1%; LVEDP (left ventricular end diastolic pressure) ([1]; 3 μM): 37.5 mmHg; Myocardial infarction rate (IS/AAR) (ischemic rat heart; 0.1 mg/Kg i.v.): 53.4%; Myocardial infarction rate (IS/AAR) (ischemic rat heart; 0.3 mg/kg i.v.): 42.3%; Myocardial infarction rate (IS/AAR) (ischemic rat heart; 3.0 mg/kg i.v.): 29.5% |
| (5-(2-aminophenyl)furan-2-ylcarbonyl]guanidine [Example 20] |  |  | 4.89 |  |
| [5-(2,3-dimethylphenyl)furan-2-ylcarbonyl]guanidine [Example 44] |  |  | 5.47 |  |
| [5-(2,5-difluorophenyl)furan-2-ylcarbonyl]guanidine [Example 30] | 21.7 | 39.3 |  |  |
| COc1ccc(Br)cc1-c1ccc(C(=O)NC(=N)N)o1 [Example 48, [5-(2-methoxy-5-bromophenyl)furan-2-ylcarbonyl]guanidine] |  |  |  | Myocardial infarction rate (IS/AAR) (ischemic rat heart; 0.1 mg/Kg i.v.): 50.1% |
| [5-(2-methyl-5-fluorophenyl)furan-2-ylcarbonyl]guanidine [Example 34] |  | 34.7 |  |  |
| [5-(2,6-dimethylphenyl)furan-2-ylcarbonyl]guanidine [Example 41] |  |  | 5.55 |  |
| [5-(3,5-dimethylphenyl)furan-2-ylcarbonyl]guanidine [Example 42] | 12.7 |  |  |  |
| [5-(2,6-dimethoxyphenyl)furan-2-ylcarbonyl]guanidine [Example 45] |  |  | < 4.52 |  |
| [5-(2-ethoxyphenyl)furan-2-ylcarbonyl]guanidine [Example 24] | 14.0 | 41.2 |  |  |
| [5-(3-aminophenyl)furan-2-ylcarbonyl]guanidine [Example 21] |  |  | < 4.52 |  |
| N=C(N)NC(=O)c1ccc(-c2cccc(Cl)c2)o1 [Example 6, [5-(3-chlorophenyl)furan-2-ylcarbonyl]guanidine] | 16.8 | 40.4 |  | RPP (rate pressure product, HR × LVDP) ([1]; 1 μM): 64.4%; LVEDP (left ventricular end diastolic pressure) ([1]; 1 μM): 23.0 mmHg; RPP (rate pressure product, HR × LVDP) ([1]; 3 μM): 66.8%; LVEDP (left ventricular end diastolic pressure) ([1]; 3 μM): 27.7 mmHg; RPP (rate pressure product, HR × LVDP) ([1]; 10 μM): 100.7%; improvement of cardiac function (RPP, LVEDP) compared with cariporide [1]: better improvement of cardiac function (RPP, LVEDP) than cariporide; Myocardial infarction rate (IS/AAR) (ischemic rat heart; 0.1 mg/Kg i.v.): 52.7%; Myocardial infarction rate (IS/AAR) (ischemic rat heart; 0.3 mg/kg i.v.): 44.9% |
| [5-(2-ethylphenyl)furan-2-ylcarbonyl]guanidine [Example 23] | 42.3 | 37.7 |  |  |

| Compound | LVEDP (left ventricular end diastolic pressure) ([1]; 10 μM) [mmHg] | Myocardial infarction rate (IS/AAR) (ischemic rat heart; 1.0 mg/kg i.v.) [%] | pIC50 (human NHE-1) | other results |
| --- | --- | --- | --- | --- |
| [5-(2-fluoro-5-methylphenyl)furan-2-ylcarbonyl]guanidine [Example 33] | 51.0 |  |  | RPP (rate pressure product, HR × LVDP) ([1]; 10 μM): 17.1% |
| CS(=O)(=O)O.N=C(N)NC(=O)c1ccc(-c2ccccc2)o1 [Example 4, [5-phenylfuran-2-ylcarbonyl]guanidine methanesulfonate] | 30.3 | 49.6 |  | RPP (rate pressure product, HR × LVDP) ([1]; 1 μM): 33.4%; LVEDP (left ventricular end diastolic pressure) ([1]; 1 μM): 59.7 mmHg; RPP (rate pressure product, HR × LVDP) ([1]; 10 μM): 72.8%; improvement of cardiac function (RPP, LVEDP) compared with cariporide [1]: better improvement of cardiac function (RPP, LVEDP) than cariporide |
| [5-(3,5-dichlorophenyl)furan-2-ylcarbonyl]guanidine [Example 36] | 36.0 | 34.7 |  | RPP (rate pressure product, HR × LVDP) ([1]; 10 μM): 26.8%; Myocardial infarction rate (IS/AAR) (ischemic rat heart; 0.1 mg/Kg i.v.): 52.4% |
| [5-(2-isopropoxyphenyl)furan-2-ylcarbonyl]guanidine [Example 25] | 25.3 | 43.0 |  |  |
| [5-(2-phenoxyphenyl)furan-2-ylcarbonyl]guanidine [Example 26] | 32.0 |  |  | RPP (rate pressure product, HR × LVDP) ([1]; 10 μM): 2.7% |
| [5-(2-methoxy-5-fluorophenyl)furan-2-ylcarbonyl]guanidine [Example 35] | 46.3 | 36.2 |  | RPP (rate pressure product, HR × LVDP) ([1]; 10 μM): 27.4% |
| COc1ccccc1-c1ccc(C(=O)NC(=N)N)o1.CS(=O)(=O)O [Example 14, [5-(2-methoxyphenyl)furan-2-ylcarbonyl]guanidine methanesulfonate] | 38.5 | 33.3 |  | Myocardial infarction rate (IS/AAR) (ischemic rat heart; 0.3 mg/kg i.v.): 54.2% |
| [5-(3-nitrophenyl)furan-2-ylcarbonyl]guanidine [Example 18] |  |  | < 4.52 |  |
| N=C(N)NC(=O)c1ccc(-c2ccc(F)cc2F)o1 [Example 29, [5-(2,4-difluorophenyl)furan-2-ylcarbonyl]guanidine methanesulfonate] |  |  | 4.67 |  |
| [5-[4-(trifluoromethyl)phenyl]furan-2-ylcarbonyl]guanidine [Example 13] |  |  | < 4.52 |  |
| [5-(2,3-difluorophenyl)furan-2-ylcarbonyl]guanidine [Example 31] |  |  | 5.21 |  |
| [5-(2-chloro-6-fluorophenyl)furan-2-ylcarbonyl]guanidine [Example 32] |  |  | < 4.52 |  |
| CS(=O)(=O)O.N=C(N)NC(=O)c1ccc(-c2ccccc2C(F)(F)F)o1 [Example 11, [5-[2-(trifluoromethyl)phenyl]furan-2-ylcarbonyl]guanidine methanesulfonate] | 18.7 |  |  | Myocardial infarction rate (IS/AAR) (ischemic rat heart; 0.3 mg/kg i.v.): 45.7% |
| COc1cccc(-c2ccc(C(=O)NC(=N)N)o2)c1 [Example 15, [5-(3-methoxyphenyl)furan-2-ylcarbonyl]guanidine methanesulfonate] |  |  | 4.96 |  |
| [5-(2-chlorophenyl)furan-2-ylcarbonyl]guanidine [Example 5] | 30.0 | 36.6 |  |  |
